Data as given in paper PMC3935458 (Journal of medicinal chemistry, 2012).
pIC50: −log10 of the molar value.

Legend:
Nek2 = target: T1, Nek2 (Homo sapiens, UniProt P51955); assay type: biochemical
T1 sequence (P51955 1-445): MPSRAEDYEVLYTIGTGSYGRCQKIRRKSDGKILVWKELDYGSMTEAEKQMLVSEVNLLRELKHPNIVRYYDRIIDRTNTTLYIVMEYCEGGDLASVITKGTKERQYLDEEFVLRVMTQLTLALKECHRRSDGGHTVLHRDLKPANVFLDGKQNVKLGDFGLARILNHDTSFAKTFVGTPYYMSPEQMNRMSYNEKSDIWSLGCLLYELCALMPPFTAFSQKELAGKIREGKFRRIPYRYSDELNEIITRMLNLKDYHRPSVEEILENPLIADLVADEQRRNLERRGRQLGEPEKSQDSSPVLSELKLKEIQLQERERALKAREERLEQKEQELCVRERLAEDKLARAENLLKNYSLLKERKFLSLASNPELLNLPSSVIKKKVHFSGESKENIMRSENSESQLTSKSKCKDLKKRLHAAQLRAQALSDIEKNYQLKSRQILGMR

[1] = test system: phosphorylation of C-Nap1; experiment: Phosphorylated C-Nap1 in cell assay; conditions: for modulation of C-Nap1 phosphorylation: aphidicolin-synchronized U2OS cells, different concentrations

Row | SMILES | modulation of C-Nap1 phosphorylation [1] | also measured
1 | CC(Oc1cc(-c2cc(-c3ccc(CN4CCOCC4)s3)cnc2N)ccc1C(N)=O)c1ccccc1C(F)(F)F (stereo not shown) [17g] | – | increase of Nek2 IC50 compared with compound 17c (Nek2): more than 7 fold
2 | CC(Oc1cc(-n2cnc3cc(OC4CCN(C)CC4)ccc32)ccc1C(N)=O)c1ccccc1C(F)(F)F (racemic) [rac-3, reference compound] | did not show any significant modulation of C-Nap1 phosphorylation | –
3 | C[C@@H](/C=C\C(F)(F)F)Oc1cc(-c2cc(-c3cc(CN(C)C)cs3)cnc2N)ccc1C(N)=O [(S)-21, (S)-(Z)-4-(2-Amino-5-(4-((dimethylamino)methyl)thiophen-2-yl)pyridin-3-yl)-2-((5,5,5-trifluoropent-3-en-2-yl)oxy)benzamide] | significantly less suppression of C-Nap1 phosphorylation | –
4 | C[C@@H](Oc1cc(-c2cc(-c3cc(CN(C)C)cs3)cnc2N)ccc1C(N)=O)c1ccccc1C(F)(F)F [(R)-17j] | – | pIC50 ([1]; Homo sapiens, U2OS, 3 h, read-out: IC50 for C-Nap1 phosphorylation inhibition): 5.57
